According to patent US12454507B2, “Compounds having a fungicidal activity, their agronomic compositions and use thereof for the control of phytopathogenic fungi” (ISAGRO S.p.A., priority 2019, dated 2025):

Tests used:
[1] = system: Plasmopara viticola; experiment: Preventive activity (7 days) against Plasmopara viticola on vines; format: in vivo; details: leaf spray, inoculation 7 days after treatment, vine Merlot, reduction of diseased leaf area vs untreated (100=complete effectiveness)
Protocol: Leaves of vine plants, Merlot variety, grown in pots, in a conditioned environment (20±1° C., 70% R.H.) were treated by spraying both sides of the leaves with the products in question. 7 days after the treatment, the plants were inoculated with an aqueous suspension of Plasmopara viticola spores (200,000 spores/cc) by spraying both sides of the leaves with a compressed air gun. After remaining 24 hours in a humidity-saturated environment, at 21° C., the plants were transferred for the incubation period (7 days) in a conditioned environment with 70% R.H. and at 24° C. After this period of time, the external symptoms of the pathogen appeared and it was therefore possible to evaluate the intensity of the infection.

[2] = system: Venturia inaequalis; format: cell-based; details: for In vitro antifungal activity, 50% effective doses (EC50): Venturia inaequalis, 20° C., 72 hours (96 or 120 when necessary)
[3] = system: Zymoseptoria tritici; experiment: Antifungal activity in vitro (growth inhibition, 96-well absorbance); format: cell-based; details: 20° C., 72 hours (96 or 120 when necessary)
[4] = system: Puccinia Recondita; experiment: Preventive fungicidal activity (5 days) against Puccinia recondita on wheat; format: in vivo; details: wheat Salgemma, inoculation 5 days after treatment; for P5 Activity NT: parts developed during the test (NT); for P5 Activity T: parts treated directly (T)
Protocol: Leaves of wheat plants of the […] variety, grown in pots in a conditioned environment at 20° C. and 70% of Relative Humidity (RH), were treated by spraying both sides of the leaves with the compound under examination dispersed in a hydroacetone solution at 20% by volume of acetone. […] After spraying, the plants were kept in a humidity-saturated environment at a temperature ranging from 18 to 24° C. for the incubation period of the fungus (1 day). At the end of this period, the plants were put in a greenhouse with a relative humidity (RH) of 70% and at a temperature of 18-24° C. for 14 days At the end of this period, the external symptoms of the pathogen appeared and it was therefore possible to proceed with the visual evaluation of the intensity of the infection, both on the parts treated directly with the products (T) and on the parts developed during the implementation of the test (NT).

[5] = system: Phytophthora infestans; format: cell-based; details: for In vitro antifungal activity, 50% effective doses (EC50): Phytophthora infestans, 20° C., 72 hours (96 or 120 when necessary)
[6] = system: Phakopsora pachyrhizi; experiment: Preventive fungicidal activity (5 days) against Phakopsora pachyrhizi on soya; format: in vivo; details: for P5 Activity: soya Zora, inoculation 5 days after treatment; for control of the pathogen: dose of 125 ppm
[7] = system: Parastagonospora nodorum; experiment: Antifungal activity in vitro (growth inhibition, 96-well absorbance); format: cell-based; details: 20° C., 72 hours (96 or 120 when necessary)
[8] = system: Sclerotinia sclerotiorum; experiment: as above; format: cell-based; details: 20° C., 72 hours (96 or 120 when necessary)
[9] = system: Bipolaris sorokiniana; experiment: as above; format: cell-based; details: 20° C., 72 hours (96 or 120 when necessary)
[10] = system: Cercospora beticola; experiment: as above; format: cell-based; details: 20° C., 72 hours (96 or 120 when necessary)
[11] = system: Alternaria alternata; format: cell-based; details: 20° C., 72 hours (96 or 120 when necessary)
[12] = system: Pythium ultimum; format: cell-based; details: for In vitro antifungal activity, 50% effective doses (EC50): Pythium ultimum, 20° C., 72 hours (96 or 120 when necessary)
[13] = system: Magnaporthe oryzae; format: cell-based; details: for In vitro antifungal activity, 50% effective doses (EC50): Magnaporthe oryzae, 20° C., 72 hours (96 or 120 when necessary)

Compound	P7Activity ([1]; 30 ppm)	P7Activity ([1]; 125 ppm)	In vitro antifungal activity, 50% effective doses (EC50) [2]	In vitro antifungal activity, 50% effective doses (EC50) [3]	P5 Activity NT ([4]; 125 ppm)	P5 Activity T ([4]; 125 ppm)	P5 Activity NT ([4]; 250 ppm)	P5 Activity T ([4]; 250 ppm)	In vitro antifungal activity, 50% effective doses (EC50) [5]	P5 Activity ([6]; 15 ppm)	P5 Activity ([6]; 30 ppm)	control of the pathogen [6]	In vitro antifungal activity, 50% effective doses (EC50) [7]	In vitro antifungal activity, 50% effective doses (EC50) [8]	In vitro antifungal activity, 50% effective doses (EC50) [9]	In vitro antifungal activity, 50% effective doses (EC50) [10]	In vitro antifungal activity, 50% effective doses (EC50) [13]	further results
CCCCCCCC(C)OC(=O)[C@H](C)NC(=O)c1cccc(NC=O)c1O (stereo partly drawn) [Compound 46, (2S)-2-(3-formamide-salicylamide)-propanoate of nonan-2-yl]	100%	100%	0.25 µg/mL	0.02 µg/mL	90%	98%	99%	100%	0.04 µg/mL	98%	99%	complete control	0.001 µg/mL	0.02 µg/mL	2.68 µg/mL	1.34 µg/mL	–	–
C[C@H](NC(=O)c1ccccc1O)C(=O)O[C@@H](C)C(c1ccc(F)cc1)c1ccc(F)cc1 [CR2, reference compound]	–	–	–	0.14 µg/mL	–	–	–	–	–	–	–	–	0.24 µg/mL	5.38 µg/mL	3.6 µg/mL	0.48 µg/mL	–	In vitro antifungal activity, 50% effective doses (EC50) [11]: 7.57 µg/mL
CC(C)C(=O)OCOc1c(NC=O)cccc1C(=O)N[C@@H](C)C(=O)O[C@@H](C)C(c1ccc(F)cc1)c1ccc(F)cc1 [Compound 156, (2S)-2-[3-formamide-2-(methoxy-(2-methyl)propanoate)-benzamide] of (2S)-1,1-bis(4-fluorophenyl)propan-2-yl]	100%	100%	–	–	93%	98%	100%	100%	–	100%	100%	complete control	–	–	–	–	–	–
CCCCC(CC)COC(=O)[C@H](C)OC(=O)[C@H](C)NC(=O)c1cccc(NC=O)c1O (stereo partly shown) [Compound 239]	–	–	–	0.067 µg/mL	–	–	–	–	1.62 µg/mL	–	–	–	0.006 µg/mL	0.081 µg/mL	–	–	0.64 µg/mL	In vitro antifungal activity, 50% effective doses (EC50) [12]: 2.78 µg/mL
C[C@H](NC(=O)c1cccc(NC=O)c1O)C(=O)O[C@@H](C)C(=O)OCc1ccccc1 [Compound 248]	–	–	–	0.17 µg/mL	–	–	–	–	1.14 µg/mL	–	–	–	0.008 µg/mL	–	–	–	–	–
C[C@H](NC(=O)c1cccc(NC=O)c1O)C(=O)O[C@@H](C)C(c1ccc(F)cc1)c1ccc(F)cc1 [Compound 165, (2S)-2-(3-formamide-salicylamide) propanoate of (2S)-1,1-bis(4-fluorophenyl) propan-2-yl]	100%	100%	0.18 µg/mL	0.007 µg/mL	88%	95%	100%	100%	0.05 µg/mL	99%	100%	complete control	0.01 µg/mL	0.01 µg/mL	0.11 µg/mL	0.19 µg/mL	0.2 µg/mL	in vitro antifungal activity (in words) ([12]; P. ultimum): active; In vitro antifungal activity, 50% effective doses (EC50) [12]: 1.54 µg/mL; in vitro antifungal activity (in words) ([2]; V. inaequalis): active; in vitro antifungal activity (in words) ([5]; P. infestans): active; In vitro antifungal activity, 50% effective doses (EC50) [11]: 0.33 µg/mL; in vitro antifungal activity (in words) ([13]; M. oryzae): active
COc1ccnc(C(=O)N[C@@H](C)C(=O)O[C@@H](C)C(c2ccc(F)cc2)c2ccc(F)cc2)c1OC(C)=O [CR1, Florypicoxamid, reference compound]	10%	40%	–	–	90%	99%	100%	100%	–	100%	100%	–	–	–	–	–	–	–
CCCCCCC[C@H](C)OC(=O)[C@H](C)NC(=O)c1cccc(NC=O)c1O [Compound 249]	100%	100%	–	–	95%	99%	100%	100%	–	98%	100%	complete control	–	–	–	–	–	–
CCCCOC(=O)[C@H](C)OC(=O)[C@H](C)NC(=O)c1cccc(NC=O)c1O [Compound 236]	–	–	1.77 µg/mL	0.095 µg/mL	–	–	–	–	1.49 µg/mL	–	–	–	0.009 µg/mL	0.18 µg/mL	8.0 µg/mL	8.64 µg/mL	0.79 µg/mL	–
